For 48 compounds, IC50 results are on record in US8501770B2 (ArQule, Inc., priority 2009, dated 2013).

Structures can show the parent of a compound that is named as a salt.

The target in the test is Full-length inactive AKT1 (Homo sapiens, UniProt P31749). Description: Inactive Akt Alpha Screen Assay. It counts as biochemical. The note with it: values not marked with "*": AlphaScreen assay; read-out: Akt1 IC50, (AlphaScreen). The protocol: AKT1 activity was assayed using the GSK3-derived biotinylated peptide substrate, crosstide (biotin-[…]), and AlphaScreen™ (Amplified Luminescent Proximity Homogeneous Assay) technology. AKT1 activation was achieved by the addition of the activating kinases PDK1 and MAPKAPK2, lipid vesicles, and ATP. The extent of peptide phosphorylation was determined using a phospho-AKT substrate antibody and acceptor beads conjugated to Protein A and donor beads conjugated to streptavidin that bind to the biotin on the peptide. Excitation of the donor beads converted ambient oxygen to excited singlet oxygen which, when in close proximity to acceptor beads, reacted with acceptor beads resulting in signal amplification.
Chain of Full-length inactive AKT1 (P31749 whole entry): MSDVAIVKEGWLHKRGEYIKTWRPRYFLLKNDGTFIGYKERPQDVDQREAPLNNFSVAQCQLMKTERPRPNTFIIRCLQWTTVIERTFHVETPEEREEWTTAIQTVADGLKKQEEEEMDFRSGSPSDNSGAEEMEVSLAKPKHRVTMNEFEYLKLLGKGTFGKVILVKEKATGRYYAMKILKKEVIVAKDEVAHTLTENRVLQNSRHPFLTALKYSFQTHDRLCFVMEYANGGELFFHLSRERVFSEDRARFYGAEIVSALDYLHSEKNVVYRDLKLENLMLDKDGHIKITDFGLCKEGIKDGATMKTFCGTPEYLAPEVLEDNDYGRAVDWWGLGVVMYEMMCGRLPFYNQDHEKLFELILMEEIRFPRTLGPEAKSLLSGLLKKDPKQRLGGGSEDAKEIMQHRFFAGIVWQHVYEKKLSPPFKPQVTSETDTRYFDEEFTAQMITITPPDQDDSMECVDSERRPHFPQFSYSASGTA
Assay plates were incubated for 90 minutes at room temperature in the dark, and the plates were read on a Perkin Elmer Envision Multilabel plate reader (excitation wavelength: […], emission wavelength: 570 nm).
Background: Alpha assays give light when donor and acceptor beads are brought close together.
Broadly, the IC50 is the concentration at which inhibition is half-maximal. Take `COc1ccc2nc(-c3cccnc3N)n(-c3ccc(C(C)(C)C)cc3)c2n1` [Example 8]: the IC50 stood at 20600 nM.
Take `CC(C)(C)OC(=O)NCc1ccc(-n2c(-c3cccnc3N)nc3cccnc32)cc1` [Example 9]: the IC50 was determined as 2470 nM.
The same measure for `Nc1ncccc1-c1nc2cccnc2n1-c1ccc(CNC(=O)c2cccnc2)cc1` [Example 12]: 211 nM.
The same measure for `CNS(=O)(=O)Cc1ccc(-n2c(-c3cccnc3N)nc3cccnc32)cc1` [Example 13]: 507 nM; for `Nc1ncccc1-c1nc2cccnc2n1-c1ccc(CN2CCOCC2)cc1` [Example 15]: 1790 nM; for `Nc1ncccc1-c1nc2cccnc2n1-c1ccc(C2CCCCC2)cc1` [Example 17]: 3900 nM.
The same measure for `Nc1ncccc1-c1nc2cccnc2n1-c1ccc(CNC(=O)c2ccccn2)cc1` [Example 19]: 344 nM.
As for `Nc1ncccc1-c1nc2cccnc2n1-c1ccc(CNC(=O)c2nccc3ccccc23)cc1` [Example 20], the IC50 came out at 354 nM.
For `Nc1ncccc1-c1nc2cccnc2n1-c1ccc(CNCc2ccccc2)cc1` [Example 37], the IC50 amounted to 205 nM.
As for `Nc1ncccc1-c1nc2cccnc2n1-c1ccc(S(=O)(=O)N2CCCCC2)cc1` [Example 38], the concentration for half-maximal inhibition (IC50) is 4310 nM.
The same measure for `Nc1ncccc1-c1nc2cccnc2n1-c1ccc(CNC(=O)c2ccc(Br)cc2)cc1` [Example 40]: 89 nM; for `Nc1ncccc1-c1nc2cccnc2n1-c1ccc(CNC(=O)CC(c2ccccc2)c2ccccc2)cc1` [Example 42]: 2010 nM; for `CC(=O)Nc1ccccc1C(=O)NCc1ccc(-n2c(-c3cccnc3N)nc3cccnc32)cc1` [Example 43]: 1410 nM.
The same measure for `Nc1ncccc1-c1nc2cccnc2n1-c1ccc(CNC(=O)c2ccc(OC(F)(F)F)cc2)cc1` [Example 47]: 378 nM; for `Nc1ncccc1-c1nc2cccnc2n1-c1ccc(CNC(=O)c2cccs2)cc1` [Example 48]: 196 nM.
The same measure for `Nc1ncccc1-c1nc2cccnc2n1-c1ccc(CNC(=O)c2cccc(F)c2)cc1` [Example 49]: 84 nM; for `COc1ccccc1C(=O)NCc1ccc(-n2c(-c3cccnc3N)nc3cccnc32)cc1` [Example 50]: 2610 nM.
Consider `CC(C)(C)C(=O)NCc1ccc(-n2c(-c3cccnc3N)nc3cccnc32)cc1` [Example 52, N-{4-[2-(2-aminopyridin-3-yl)-3H-imidazo[4,5-b]pyridin-3-yl]benzyl}-2,2-dimethylpropanamide], for which the IC50 worked out at 2770 nM.
The same measure for `Cc1cccc(C(=O)NCc2ccc(-n3c(-c4cccnc4N)nc4cccnc43)cc2)c1` [Example 53]: 122 nM.
The same measure for `COc1ccc(C(=O)NCc2ccc(-n3c(-c4cccnc4N)nc4cccnc43)cc2)cc1` [Example 54]: 711 nM.
The same measure for `CNc1ccccc1C(=O)NCc1ccc(-n2c(-c3cccnc3N)nc3cccnc32)cc1` [Example 57]: 1520 nM; for `Nc1ncccc1-c1nc2cccnc2n1-c1ccc(CNC(=O)c2ccc(C(F)(F)F)cc2)cc1` [Example 63]: 790 nM; for `Nc1ncccc1-c1nc2cccnc2n1-c1ccc(CNC(=O)c2ccc3c(c2)CCO3)cc1` [Example 64]: 1130 nM.
In the case of `Cc1ccccc1C(=O)NCc1ccc(-n2c(-c3cccnc3N)nc3cccnc32)cc1` [Example 70], the IC50 was determined as 189 nM.
The same measure for `CC(=O)Nc1ccc(C(=O)NCc2ccc(-n3c(-c4cccnc4N)nc4cccnc43)cc2)cc1` [Example 71]: 605 nM.
In the case of `Nc1ncccc1-c1nc2cccnc2n1-c1ccc(CNC(=O)CC2CCCC2)cc1` [Example 73], the IC50 is 2610 nM.
The same measure for `Nc1ncccc1-c1nc2cccnc2n1-c1ccc(CNC(=O)C2Cc3ccccc3C2)cc1` [Example 75]: 179 nM; for `COc1cccc(C(=O)NCc2ccc(-n3c(-c4cccnc4N)nc4cccnc43)cc2)c1` [Example 77]: 417 nM.
The same measure for `Nc1ncccc1-c1nc2cccnc2n1-c1ccc(CNC(=O)c2ccccc2-n2cccc2)cc1` [Example 78]: 307 nM.
The same measure for `CC1=NN(c2ccc(C(=O)NCc3ccc(-n4c(-c5cccnc5N)nc5cccnc54)cc3)cc2)C(=O)C1` [Example 79]: 1110 nM.
Consider `Nc1ncccc1-c1nc2cccnc2n1-c1ccc(CNC(=O)c2ccc(F)cc2)cc1` [Example 81], for which the concentration for half-maximal inhibition (IC50) came out at 1370 nM.
The same measure for `Nc1ncccc1-c1nc2cccnc2n1-c1ccc(CNC(=O)Nc2ccccc2Cl)cc1` [Example 90]: 394 nM.
As to `Nc1ncccc1-c1nc2cccnc2n1-c1ccc(CNS(=O)(=O)c2cccnc2)cc1` [Example 94], the IC50 turned out to be 142 nM.
The same measure for `Nc1ncccc1-c1nc2cccnc2n1-c1ccc(CNS(=O)(=O)c2ccsc2)cc1` [Example 100]: 158 nM; for `Nc1ccc(-n2c(-c3cccnc3N)nc3cccnc32)cc1` [Example 106, hydrochloride]: 2530 nM.
With `Nc1ncccc1-c1nc2cccnc2n1-c1ccc(CC(=O)N2CCC(n3c(=O)[nH]c4ccccc43)CC2)cc1` [Example 107], the IC50 is 1430 nM.
The same measure for `Cn1ccc(S(=O)(=O)NCc2ccc(-n3c(-c4cccnc4N)nc4cccnc43)cc2)n1` [Example 109, hydrochloride]: 860 nM.
In the case of `CCOC(=O)Cc1ccc(-n2c(-c3cccnc3N)nc3cccnc32)cc1` [Example 113], the concentration for half-maximal inhibition (IC50) amounted to 610 nM.
Turning to `Cn1c(NC(=O)Cc2ccc(-n3c(-c4cccnc4N)nc4cccnc43)cc2)nc2ccccc21` [Example 114], the IC50 was 579 nM.
The same measure for `COc1ccc(NC(=O)Cc2ccc(-n3c(-c4cccnc4N)nc4cccnc43)cc2)c(OC)c1` [Example 116]: 595 nM; for `COc1cccc(NC(=O)Cc2ccc(-n3c(-c4cccnc4N)nc4cccnc43)cc2)c1` [Example 119, hydrochloride]: 233 nM.
Take `Cc1ccc2nc(NC(=O)Cc3ccc(-n4c(-c5cccnc5N)nc5cccnc54)cc3)sc2c1` [Example 121, hydrochloride]: the IC50 came to 160 nM.
The same measure for `Cc1ccc2cc(NC(=O)Cc3ccc(-n4c(-c5cccnc5N)nc5cccnc54)cc3)ccc2n1` [Example 123, hydrochloride]: 128 nM; for `Cc1ccc(NC(=O)Cc2ccc(-n3c(-c4cccnc4N)nc4cccnc43)cc2)cc1` [Example 127]: 108 nM; for `COc1ccc(NC(=O)Cc2ccc(-n3c(-c4cccnc4N)nc4cccnc43)cc2)cc1F` [Example 128]: 216 nM.
The same measure for `Nc1ncccc1-c1nc2cc(F)cnc2n1-c1ccc(CNC(=O)c2ccccc2)cc1` [Example 133, N-(4-(2-(2-aminopyridin-3-yl)-6-fluoro-3H-imidazo[4,5-b]pyridin-3-yl)benzyl)benzamide]: 106 nM.
The same measure for `Nc1ccccc1-c1cnc2c(c1)nc(-c1cccnc1N)n2-c1ccc(CNC(=O)c2ccccc2)cc1` [Example 134, N-{4-[6-(2-aminophenyl)-2-(2-aminopyridin-3-yl)-3H-imidazo[4,5-b]pyridin-3-yl]benzyl}benzamide]: 1600 nM; for `CCOc1cccc(-c2cnc3c(c2)nc(-c2cccnc2N)n3-c2ccc(CNC(=O)c3ccccc3)cc2)c1` [Example 135, N-{4-[2-(2-aminopyridin-3-yl)-6-(3-ethoxyphenyl)-3H-imidazo[4,5-b]pyridin-3-yl]benzyl}benzamide]: 1800 nM.
